Patent publication US20070281302A1 (priority 1998, published 2007)
“Also recorded” adds a separate entry of the source. No end group written: not given here.

What was measured:
[1] = system: Bacillus spores of each experiment shown in FIG. 3; format: binding
B. cereus T spores = format: binding, Bacillus cereus
[2] = system: B. anthracis (Sterne and ΔAmes) spores; format: binding, Bacillus anthracis
spores of B. cereus T = format: binding, Bacillus cereus
[3] = system: B. thuringiensis subsp. kurstaki spores; format: binding, Bacillus thuringiensis
[4] = system: spores of B. thuringiensis subsp. kurstaki; format: binding, Bacillus thuringiensis
[5] = system: spores of the other Bacillus strains; format: binding
[6] = system: spores of 15 of the other Bacillus strains; format: binding
[7] = system: B. anthracis spores (Sterne, delta-Ames); format: binding, Bacillus anthracis
spores of B. subtilis = format: binding, Bacillus subtilis
[8] = system: B. anthracis spores (delta-Ames, Sterne); format: binding, Bacillus anthracis
B. cereus T spore = format: binding, Bacillus cereus
B. subtilis spores = format: binding, Bacillus subtilis
spores of B. cerues T = format: binding, Bacillus cereus
[9] = system: vegetative cells of the Sterne and ΔAmes strains; format: binding, Bacillus anthracis

With “ILPRPYTGGGC (also: PE conjugate) [ILPRPYTGGGC-PE]” the “spore binding of control peptide-PE conjugates” value [1] was “No significant binding”.

With ATYPLPIRGGGC-PE (PE conjugate) the “binding of the conjugate to spores” value (B. cereus T spores) was “limited binding”, the “binding relative to TYPLPIRGGGC-PE” value (B. cereus T spores) was “only slightly enhanced” and the “binding of the conjugate to spores” value [2] was “extensive binding”. The “enhancement of binding relative to TYPLPIRGGGC-PE” value [2] was about 10 fold, the “fluorescent labeling of spores” value (spores of B. cereus T) was “low-level but detectable binding” and the “binding of the conjugate to spores” value [3] was “limited binding”. For the same substance, the “binding relative to TYPLPIRGGGC-PE” value [3] was “only slightly enhanced”, the “fluorescent labeling of spores” value [4] was “low-level but detectable binding” and the “fluorescent labeling of spores” value [5] was “not other strains; also recorded: essentially nonfluorescent”. The “binding of the conjugate to spores” value [6] was “did not permit detectable binding; also recorded: No peptide-conjugate binding was observed” and the “fluorescent labeling of spores” value [7] was “completely encircled by fluorescent ligand; also recorded: readily detectable”.

With NHFL (B. subtilis) the “binding to the spores (ligand quality)” value (spores of B. subtilis) was “poor ligand”.

In the case of NHFLP (B. subtilis), the “binding to the spores (ligand quality)” value (spores of B. subtilis) is reported as “tight binding”.

For TYPIPFR [Isolate 6 (Table 3)], the “number of phage containing the sequence” value [8] was “three”.

LLSPLHR [Sequence 6 (Table 5)] was tested, and the “number of phage containing the sequence” value (B. cereus T spore) was 6. (2).

SLLPGLPGGGC-PE (PE conjugate) was tested, and the “binding of the conjugate to spores” value (B. cereus T spores) was “extensive binding”, the “binding of the conjugate to spores” value [2] was “no binding” and the “binding of the conjugate to spores” value [3] was “extensive binding”. The “binding of the conjugate to spores” value [6] was “No peptide-conjugate binding was observed”.

For TYPVPHR [Isolate 9 (Table 3)], the “number of phage containing the sequence” value [8] was “once”.

THRLPSR [Sequence 1 (Table 5)] was tested, and the “number of phage containing the sequence” value (B. cereus T spore) was 1. (2).

“HWHHHGHGGGC (also: PE conjugate) [HWHHHGHGGGC-PE]” was tested, and the “spore binding of control peptide-PE conjugates” value [1] was “No significant binding”.

In the case of NHFLPKV [Isolate 4 (Table 1)], the “binding of the peptide to the spore” value (B. subtilis spores) is reported as “bound tightly”, the “eluted phage examined that contained the sequence” value (B. subtilis spores) is reported as “Seven of the ten” and the “enrichment of this phage” value (B. subtilis spores) is reported as 700 fold.

For WSPLHKH [Sequence 8 (Table 5)], the binding to spores (spores of B. cerues T) was “tight binding”, the “eluted phage that contained the sequence” value (spores of B. cerues T) was “Six of the twenty” and the “enrichment of this phage” value (spores of B. cerues T) was 300 fold.

In the case of TYPLPIRGGGC-PE (PE conjugate), the “binding of the peptide-PE conjugate to spores, compared with B. anthracis spores” value (B. cereus T spores) is reported as “weaker (or less extensive)”, the “binding of the peptide-PE conjugate to spores” value [2] is reported as “concentration-dependent binding” and the “effect of bovine serum albumin on conjugate binding” value [2] is reported as “not inhibited”. For the same substance, the “binding of the peptide-PE conjugate to spores, compared with B. anthracis spores” value [3] was “weaker (or less extensive)”, the “binding of the peptide-PE conjugate to spores” value [6] was “did not bind” and the “binding of the peptide-PE conjugate to spores at the highest concentration” value [6] was “minimal binding”. The “binding to vegetative cells” value [9] was “did not bind”.

TYPIPIR [Isolate 5 (Table 3)] was tested, and the “number of phage containing the sequence” value [8] was “three”.
